US9351974B2, “Substituted pteridinones for the treatment of cancer” (OSI Pharmaceuticals, LLC, priority 2011, dated 2016)

Molecular target: T1, His-tagged full-length RSK2 (RPS6KA3) (Homo sapiens, UniProt P51812)
T1 construct: His-tagged full-length RSK2 (RPS6KA3, Invitrogen PV3323); His; purchased Invitrogen PV3323
Experiment: RSK2 Omnia Assay for compound IC50 determination
Assay type: biochemical
Conditions: ATP 15 μM, n=2, read-out: Mean RSK2 Biochem IC50
How it was run: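 Continuous fluorescence assay (ex 360/em 485 nm) of SOX-peptide (Omnia ST Peptide 6, 5 μM) phosphorylation with ATP 15 μM (Km 16.3 μM). Enzyme was […], in pH 7.5 HEPES/MgCl2 buffer with 1% DMSO. IC50 came from 11-point threefold dilutions ([…]) by four-parameter fit of initial slopes, in duplicate; Ki by Cheng-Prusoff assuming competitive inhibition.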

T1 sequence (P51812 whole entry): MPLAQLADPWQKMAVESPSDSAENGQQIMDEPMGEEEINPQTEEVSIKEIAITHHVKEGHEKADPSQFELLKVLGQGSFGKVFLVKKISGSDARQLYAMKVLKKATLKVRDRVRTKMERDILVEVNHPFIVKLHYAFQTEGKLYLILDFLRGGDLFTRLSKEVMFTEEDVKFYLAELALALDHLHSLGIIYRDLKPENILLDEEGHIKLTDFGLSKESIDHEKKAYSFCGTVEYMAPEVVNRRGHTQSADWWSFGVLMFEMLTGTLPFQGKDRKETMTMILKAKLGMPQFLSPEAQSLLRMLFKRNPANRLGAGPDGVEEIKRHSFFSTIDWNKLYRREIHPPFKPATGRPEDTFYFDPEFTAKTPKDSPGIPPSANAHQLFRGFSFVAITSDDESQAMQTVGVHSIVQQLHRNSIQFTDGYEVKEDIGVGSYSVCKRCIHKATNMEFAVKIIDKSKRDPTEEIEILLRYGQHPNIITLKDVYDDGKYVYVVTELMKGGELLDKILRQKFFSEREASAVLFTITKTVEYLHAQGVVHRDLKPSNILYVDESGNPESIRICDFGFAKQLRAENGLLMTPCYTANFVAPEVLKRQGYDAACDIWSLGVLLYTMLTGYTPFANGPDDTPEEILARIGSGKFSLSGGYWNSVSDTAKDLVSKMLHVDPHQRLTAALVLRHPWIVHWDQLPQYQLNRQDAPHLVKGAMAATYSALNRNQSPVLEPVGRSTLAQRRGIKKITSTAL

Row | SMILES | IC50
1 | C[C@@H]1C(=O)N(c2cccc(C#N)c2)c2cnc(Nc3ccc(O)cn3)nc2N1C1CCCCC1 [compound 168, 3-[(7R)-8-cyclohexyl-2-[(5-hydroxypyridin-2-yl)amino]-7-methyl-6-oxo-7,8-dihydropteridin-5(6H)-yl]benzonitrile] | 0.1 to 1 µM
2 | CO[C@H]1CC[C@H](N2c3nc(Nc4cnc5[nH]ncc5c4)ncc3N(c3cccc(C#N)c3)C(=O)[C@H]2C)CC1 [compound 231, 3-[(7R)-8-(trans-4-methoxycyclohexyl)-7-methyl-6-oxo-2-(1H-pyrazolo[3,4-b]pyridin-5-ylamino)-7,8-dihydropteridin-5(6H)-yl]benzonitrile] | ≤ 0.1 µM
3 | CC(C)CCN1c2nc(Nc3ccc4[nH]ncc4c3)ncc2N(c2ccccc2)C(=O)C1(C)C [Example 70, 2-(1H-indazol-5-ylamino)-7,7-dimethyl-8-(3-methylbutyl)-5-phenyl-7,8-dihydropteridin-6(5H)-one] | ≤ 0.1 µM
4 | CC(C)CCN1c2nc(Nc3ccc4c(c3)CC(=O)N4)ncc2N(c2ccccc2)C(=O)C1C (stereo not shown) [Example 3, 7-methyl-8-(3-methylbutyl)-2-[(2-oxo-2,3-dihydro-1H-indol-5-yl)amino]-5-phenyl-7,8-dihydropteridin-6(5H)-one] | ≤ 0.1 µM
5 | N#Cc1cccc(N2C(=O)[C@@H](CF)N(C3CCCC3)c3nc(Nc4cc(F)c5[nH]ncc5c4)ncc32)c1 [Example 221, 3-[(7S)-8-cyclopentyl-2-[(7-fluoro-1H-indazol-5-yl)amino]-7-(fluoromethyl)-6-oxo-7,8-dihydropteridin-5(6H)-yl]benzonitrile] | ≤ 0.1 µM
6 | COc1ccc(N2C(=O)[C@@H](C)N(C3CCC4(CC3)CC4)c3nc(Nc4cc(F)c5[nH]ncc5c4)ncc32)cc1OC [Example 299, (7R)-5-(3,4-dimethoxyphenyl)-2-[(7-fluoro-1H-indazol-5-yl)amino]-7-methyl-8-(spiro[2.5]oct-6-yl)-7,8-dihydropteridin-6(5H)-one] | ≤ 0.1 µM
7 | CCOc1ccc(N2C(=O)[C@@H](C)N(C3CCOCC3)c3nc(Nc4cnc5[nH]ncc5c4)ncc32)cc1C#N [compound 201, 2-Ethoxy-5-[(7R)-7-methyl-6-oxo-2-(1H-pyrazolo[3,4-b]pyridin-5-ylamino)-8-(tetrahydro-2H-pyran-4-yl)-7,8-dihydropteridin-5(6H)-yl]benzonitrile] | ≤ 0.1 µM
8 | C[C@@H]1C(=O)N(c2cnc3ccccc3c2)c2cnc(Nc3ccc4[nH]ncc4c3)nc2N1C1CCCCC1 [Example 50, (7R)-8-cyclohexyl-2-(1H-indazol-5-ylamino)-7-methyl-5-(quinolin-3-yl)-7,8-dihydropteridin-6(5H)-one] | ≤ 0.1 µM
9 | C[C@@H]1C(=O)N(c2cccc(C#N)c2)c2cnc(Nc3ccc(C(=O)O)cc3)nc2N1C1CCC(F)(F)CC1 [compound 269, 4-{[(7R)-5-(3-cyanophenyl)-8-(4,4-difluorocyclohexyl)-7-methyl-6-oxo-5,6,7,8-tetrahydropteridin-2-yl]amino}benzoic acid] | ≤ 0.1 µM
10 | CCOc1ccc(N2C(=O)[C@@H](C)N([C@H]3CC[C@H](C)CC3)c3nc(Nc4ccc5[nH]c(=O)oc5c4)ncc32)cc1C#N [compound 247, 2-Ethoxy-5-[(7R)-7-methyl-8-(trans-4-methylcyclohexyl)-6-oxo-2-[(2-oxo-2,3-dihydro-1,3-benzoxazol-6-yl)amino]-7,8-dihydropteridin-5(6H)-yl]benzonitrile] | ≤ 0.1 µM
11 | CO[C@H]1CC[C@H](N2c3nc(Nc4ccc5[nH]c(=O)oc5c4)ncc3N(c3cccc(C#N)c3)C(=O)[C@H]2C)CC1 [compound 229, 3-[(7R)-8-(trans-4-methoxycyclohexyl)-7-methyl-6-oxo-2-[(2-oxo-2,3-dihydro-1,3-benzoxazol-6-yl)amino]-7,8-dihydropteridin-5(6H)-yl]benzonitrile] | ≤ 0.1 µM
12 | COc1ccc(N2C(=O)[C@@H](C)N(C3CCCCC3)c3nc(NCc4cn[nH]c4)ncc32)cc1OC [compound 163] | > 1 µM
13 | C[C@@H]1C(=O)N(c2cccc(C#N)c2)c2cnc(Nc3ccc4[nH]nc(F)c4c3)nc2N1C1CCCCC1 [compound 115, 3-[(7R)-8-cyclohexyl-2-[(3-fluoro-1H-indazol-5-yl)amino]-7-methyl-6-oxo-7,8-dihydropteridin-5(6H)-yl]benzonitrile] | ≤ 0.1 µM
14 | C[C@@H]1C(=O)N(c2cccc(C#N)c2)c2cnc(Nc3ccc4c(c3)CNC4=O)nc2N1C1CCCCC1 [compound 161] | ≤ 0.1 µM
15 | C[C@@H]1C(=O)N(c2cccc(C#N)c2)c2cnc(Nc3ccc(CO)cc3)nc2N1C1CCCCC1 [compound 171] | ≤ 0.1 µM
16 | C[C@@H]1C(=O)N(c2ccc(OC(F)(F)F)cc2)c2cnc(Nc3ccc4[nH]ncc4c3)nc2N1C1CCCCC1 [Example 33, (7R)-8-cyclohexyl-2-(1H-indazol-5-ylamino)-7-methyl-5-[4-(trifluoromethoxy)phenyl]-7,8-dihydropteridin-6(5H)-one] | 0.1 to 1 µM

Row | SMILES | IC50
17 | Cc1ccc(N2C(=O)[C@@H](C)N(C3CCCCC3)c3nc(Nc4ccc5[nH]ncc5c4)ncc32)cc1F [compound 121, (7R)-8-cyclohexyl-5-(3-fluoro-4-methylphenyl)-2-(1H-indazol-5-ylamino)-7-methyl-7,8-dihydropteridin-6(5H)-one] | ≤ 0.1 µM
18 | C[C@@H]1C(=O)N(c2ccc(N3CCN(C)CC3)c(C#N)c2)c2cnc(Nc3cc(F)c4[nH]ncc4c3)nc2N1[C@H]1CC[C@H](C)CC1 [compound 251, 5-[(7R)-2-[(7-fluoro-1H-indazol-5-yl)amino]-7-methyl-8-(trans-4-methylcyclohexyl)-6-oxo-7,8-dihydropteridin-5(6H)-yl]-2-(4-methylpiperazin-1-yl)benzonitrile] | ≤ 0.1 µM
19 | CC(C)CCN1c2nc(Nc3ccc(CC(=O)N(C)C)cc3)ncc2N(c2ccccc2)C(=O)C1C (stereo not shown) [Example 6, N,N-dimethyl-2-(4-{[7-methyl-8-(3-methylbutyl)-6-oxo-5-phenyl-5,6,7,8-tetrahydropteridin-2-yl]amino}phenyl)acetamide] | 0.1 to 1 µM
20 | COc1ccc(N2C(=O)[C@@H](C)N(C3CCCCC3)c3nc(Nc4cc(F)c5[nH]ncc5c4)ncc32)cc1OC [compound 132, (7R)-8-cyclohexyl-5-(3,4-dimethoxyphenyl)-2-[(7-fluoro-1H-indazol-5-yl)amino]-7-methyl-7,8-dihydropteridin-6(5H)-one] | ≤ 0.1 µM
21 | COc1ccc(N2C(=O)[C@@H](C)N(C3CCOCC3)c3nc(Nc4ccc5[nH]nc(F)c5c4)ncc32)cc1OC [compound 187, (7R)-5-(3,4-dimethoxyphenyl)-2-[(3-fluoro-1H-indazol-5-yl)amino]-7-methyl-8-(tetrahydro-2H-pyran-4-yl)-7,8-dihydropteridin-6(5H)-one] | ≤ 0.1 µM
22 | COc1cc(N2C(=O)[C@@H](C)N(C3CCCCC3)c3nc(Nc4ccc5[nH]ncc5c4)ncc32)ccc1C [compound 125, (7R)-8-cyclohexyl-2-(1H-indazol-5-ylamino)-5-(3-methoxy-4-methylphenyl)-7-methyl-7,8-dihydropteridin-6(5H)-one] | ≤ 0.1 µM
23 | C[C@@H]1C(=O)N(c2ccccc2)c2cnc(Nc3ccc4[nH]ncc4c3)nc2N1C1CCCCC1 [Example 18, (7R)-8-cyclohexyl-2-(1H-indazol-5-ylamino)-7-methyl-5-phenyl-7,8-dihydropteridin-6(5H)-one] | ≤ 0.1 µM
24 | CC(C)CCn1c(=O)c(=O)n(-c2ccccc2)c2cnc(Nc3ccc4[nH]ncc4c3)nc21 [Example 305, 2-(1H-indazol-5-ylamino)-8-(3-methylbutyl)-5-phenyl-5,8-dihydropteridine-6,7-dione] | > 1 µM
25 | C[C@@H]1C(=O)N(c2ccccc2)c2cnc(Nc3ccc4[nH]ncc4c3)nc2N1Cc1ccccc1 [Example 76, (7R)-8-benzyl-2-(1H-indazol-5-ylamino)-7-methyl-5-phenyl-7,8-dihydropteridin-6(5H)-one] | ≤ 0.1 µM
26 | COc1ccc(N2C(=O)[C@@H](C)N(CCC(C)C)c3nc(Nc4cc(F)c5[nH]c(=O)oc5c4)ncc32)cc1OC [Example 88, (7R)-5-(3,4-dimethoxyphenyl)-2-[(4-fluoro-2-oxo-2,3-dihydro-1,3-benzoxazol-6-yl)amino]-7-methyl-8-(3-methylbutyl)-7,8-dihydropteridin-6(5H)-one] | ≤ 0.1 µM
27 | O=c1c(=O)n(C2CCCC2)c2nc(Nc3ccc4[nH]ncc4c3)ncc2n1-c1ccccc1 [Example 307, 8-cyclopentyl-2-(1H-indazol-5-ylamino)-5-phenyl-5,8-dihydropteridine-6,7-dione] | 0.1 to 1 µM
28 | CC[C@@H]1C(=O)N(c2cccc(C#N)c2)c2cnc(Nc3cc(F)c4[nH]ncc4c3)nc2N1C1CCCC1 [Example 217, 3-[(7R)-8-cyclopentyl-7-ethyl-2-[(7-fluoro-1H-indazol-5-yl)amino]-6-oxo-7,8-dihydropteridin-5(6H)-yl]benzonitrile] | ≤ 0.1 µM
29 | Cc1ccc(N2C(=O)[C@@H](C)N(C3CCCCC3)c3nc(Nc4ccc5[nH]ncc5c4)ncc32)cc1 [Example 22, (7R)-8-cyclohexyl-2-(1H-indazol-5-ylamino)-7-methyl-5-(4-methylphenyl)-7,8-dihydropteridin-6(5H)-one] | ≤ 0.1 µM
30 | COc1ccc(N2C(=O)[C@@H](C)N([C@H]3CC[C@H](C)CC3)c3nc(Nc4cnc5[nH]ncc5c4)ncc32)cc1C#N [compound 245, 2-Methoxy-5-[(7R)-7-methyl-8-(trans-4-methylcyclohexyl)-6-oxo-2-(1H-pyrazolo[3,4-b]pyridin-5-ylamino)-7,8-dihydropteridin-5(6H)-yl]benzonitrile] | ≤ 0.1 µM
31 | C[C@@H]1C(=O)N(c2ccc(F)cc2)c2cnc(Nc3ccc4[nH]ncc4c3)nc2N1C1CCCCC1 [Example 24, (7R)-8-cyclohexyl-5-(4-fluorophenyl)-2-(1H-indazol-5-ylamino)-7-methyl-7,8-dihydropteridin-6(5H)-one] | ≤ 0.1 µM
